Test results as given in US20170081338A1, “SUBSTITUTED HETEROARYL COMPOUNDS AND METHODS OF USE” (Sunshine Lake Pharma Co., Ltd., priority 2015, published 2017).

Columns and labels:
Aurora-A (h) = biological target: T1, Aurora-A (h) (Homo sapiens, UniProt O14965); test: Aurora-A (h) kinase assay; assay type: biochemical
T1 construct: purchased Millipore UK Ltd (contract assay service)
T1 sequence (O14965 1-403): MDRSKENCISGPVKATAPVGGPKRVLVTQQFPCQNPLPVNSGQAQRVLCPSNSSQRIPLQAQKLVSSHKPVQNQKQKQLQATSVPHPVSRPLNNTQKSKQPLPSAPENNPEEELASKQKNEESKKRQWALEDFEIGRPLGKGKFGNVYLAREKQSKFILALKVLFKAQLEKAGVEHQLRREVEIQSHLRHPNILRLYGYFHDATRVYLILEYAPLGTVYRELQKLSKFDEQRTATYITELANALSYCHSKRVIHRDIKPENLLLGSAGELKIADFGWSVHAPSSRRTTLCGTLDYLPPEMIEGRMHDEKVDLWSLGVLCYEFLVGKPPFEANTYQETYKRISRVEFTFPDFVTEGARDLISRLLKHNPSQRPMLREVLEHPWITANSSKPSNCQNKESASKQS
Outline: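 Human Aurora-A incubated with 200 μM Kemptide, 10 mM Mg acetate, [γ-33P]ATP in 8 mM MOPS pH 7.0 for 40 min at room temperature; stopped with phosphoric acid, spotted on P30 filtermat and scintillation counted. IC50 from 10-point ½-log dilution series.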

FLT3 (h) = biological target: T2, FLT3 (h) (Homo sapiens, UniProt P36888); test: FLT3 (h) kinase assay; assay type: biochemical
T2 construct: purchased Millipore UK Ltd (contract assay service)
T2 sequence (P36888 27-993): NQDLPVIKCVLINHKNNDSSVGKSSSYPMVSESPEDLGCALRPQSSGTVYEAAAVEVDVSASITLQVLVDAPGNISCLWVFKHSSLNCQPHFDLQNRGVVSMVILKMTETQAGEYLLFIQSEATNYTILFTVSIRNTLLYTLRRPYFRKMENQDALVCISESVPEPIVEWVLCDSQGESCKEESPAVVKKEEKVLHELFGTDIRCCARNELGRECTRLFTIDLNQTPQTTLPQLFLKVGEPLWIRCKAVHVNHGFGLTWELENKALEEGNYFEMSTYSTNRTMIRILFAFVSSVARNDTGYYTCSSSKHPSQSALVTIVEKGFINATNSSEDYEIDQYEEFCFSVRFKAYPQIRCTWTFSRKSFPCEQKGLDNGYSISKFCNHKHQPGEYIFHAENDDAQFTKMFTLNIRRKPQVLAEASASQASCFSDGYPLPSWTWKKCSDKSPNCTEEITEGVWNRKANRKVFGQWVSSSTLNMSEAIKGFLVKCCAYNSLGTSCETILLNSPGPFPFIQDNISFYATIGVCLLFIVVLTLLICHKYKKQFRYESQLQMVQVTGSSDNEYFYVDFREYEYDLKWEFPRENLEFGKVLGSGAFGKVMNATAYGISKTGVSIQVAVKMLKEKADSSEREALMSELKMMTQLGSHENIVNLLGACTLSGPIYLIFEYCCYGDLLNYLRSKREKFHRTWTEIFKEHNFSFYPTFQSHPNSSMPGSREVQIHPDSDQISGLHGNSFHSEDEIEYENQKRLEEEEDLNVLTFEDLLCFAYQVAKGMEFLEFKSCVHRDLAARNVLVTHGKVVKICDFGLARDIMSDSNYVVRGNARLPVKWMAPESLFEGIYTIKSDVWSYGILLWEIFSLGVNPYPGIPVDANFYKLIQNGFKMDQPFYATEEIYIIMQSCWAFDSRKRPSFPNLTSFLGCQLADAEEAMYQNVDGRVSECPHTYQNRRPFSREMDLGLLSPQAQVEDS
Procedure: Kinase assays can be performed by measurement of incorporation of γ-^33P ATP into immobilized myelin basic protein (MBP). High binding white 384 well plates (Greiner) are coated with MBP (Sigma #M-1891) by incubation of 60 μL/well of 20 μg/mL MBP in Tris-buffered saline (TBS; 50 mM Tris pH 8.0, 138 mM NaCl, 2.7 mM KCl) for 24 h at 4° C. Plates are washed 3× with 100 μL TBS. Kinase reactions are carried out in a total volume of 34 μL in kinase buffer (according to the need to make, for example, 5 mM Hepes pH 7.6, 15 mM NaCl, 0.01% bovine gamma globulin (Sigma #1-5506), 10 mM MgCl2, 1 mM DTT, 0.02% TritonX-100). Compound dilutions are performed in DMSO and added to assay wells to a final DMSO concentration of 1%. Each data point is measured in duplicate, and at least two duplicate assays are performed for each individual compound determination. […] A mixture of unlabeled ATP and γ-^33P ATP is added to start the reaction (2×10^6 cpm of γ-^33P ATP per well (3000 Ci/mmole) and 10 μM unlabeled ATP, typically. The reactions are carried out for 1 h at room temperature with shaking. Plates are washed 7× with TBS, followed by the addition of 50 µL/well scintillation fluid (Wallac). Plates are read using a Wallac Trilux counter. This is only one format of such assays; various other formats are possible, as known to one skilled in the art. […]

| IC50 (Aurora-A (h)) [nM] | IC50 (FLT3 (h)) [nM] | SMILES |
| --- | --- | --- |
| 6 |  | Cn1cc(Nc2ncc(Cl)c(N[C@@H]3COC4C3OC[C@@H]4NS(=O)(=O)CC(C)(C)C#N)n2)cn1 (stereo partly drawn) [Ex. 26, N-((3S,6R)-6-((5-chloro-2-((1-methyl-1H-pyrazol-4-yl)amino)pyrimidin-4-yl)amino)hexahydrofuro[3,2-b]furan-3-yl)-2-cyano-2-methylpropane-1-sulfonamide] |
| 5 |  | Cn1cc(Nc2ncc(Cl)c(N[C@@H]3COC4C3OC[C@@H]4NS(=O)(=O)CC3CC3)n2)cn1 (stereo partly drawn) [Ex. 25, N-((3S,6R)-6-((5-chloro-2-((1-methyl-1H-pyrazol-4-yl)amino)pyrimidin-4-yl)amino)hexahydrofuro[3,2-b]furan-3-yl)-1-cyclopropylmethanesulfonamide] |
| 20 | 846 | CC(C)CS(=O)(=O)N[C@H]1COC2C1OC[C@H]2Nc1nc(Nc2cnn(C)c2)ncc1Cl (stereo partly drawn) [Ex. 2, N-((3S,6R)-6-((5-chloro-2-((1-methyl-1H-pyrazol-4-yl)amino)pyrimidin-4-yl)amino)hexahydrofuro[3,2-b]furan-3-yl)-2-methylpropane-1-sulfonamide] |
| 39 |  | Cn1cc(Nc2ncc(Cl)c(N[C@@H]3COC4C3OC[C@@H]4NS(=O)(=O)CC(F)(F)F)n2)cn1 (stereo partly drawn) [Ex. 27, N-((3S,6R)-6-((5-chloro-2-((1-methyl-1H-pyrazol-4-yl)amino)pyrimidin-4-yl)amino)hexahydrofuro[3,2-b]furan-3-yl)-2,2,2-trifluoroethanesulfonamide] |
